Test results as given in PMC9792601, “Conformational switch and multiple supramolecular structures of a newly identified self-assembling protein-mimetic peptide from Pseudomonas aeruginosa YeaZ protein” (Frontiers in Chemistry, 2022).
Ends that are not written are not given here.

How the values were obtained:
[1] = Dynamic Light Scattering of aggregates; format: physicochemical; settings: 25°C, aged 24 h
Description: Malvern Zetasizer Nano instrument (Malvern Panalytical, Ltd.) was employed for Dynamic Light Scattering (DLS) analysis, performed at 25°C. The instrument is equipped with a 633 nm […] He–Ne laser at a scattering angle of 173°. All the samples used to analyze the stability of the PMP-2 aggregates as a function of different DMSO/water ratio were prepared by solvent displacement technique starting from concentrated solutions in 100% DMSO (0.125, 0.2, 0.5, 2, 4, and 10 mM) to obtain 0.1 mM final concentrations in Milli-Q water, with 80%, 50%, 20%, 10%, 5%, 2.5% and 1% v/v of DMSO, respectively. All the samples used to analyze the stability of the PMP-2 aggregates as a function of concentration were prepared starting from 0.1 mM in Milli-Q water with 5% v/v of DMSO and diluting with Milli-Q water to obtain the final concentration of 0.05, 0.01, 0.005, and 0.001 mM. The corresponding refractive index and viscosity data of DMSO/water mixtures are reported in the literature ([LeBel and Goring, 1962]) and the samples were aged 24 h at room temperature before the measurements.

[2] = Solubility observations in solvents; format: physicochemical
[3] = 20 mM hydrogel in Milli-Q water, room temperature, 10 months
Description: To prepare the hydrogels at different concentration, the lyophilized PMP-2 was dissolved in the suitable amount of Milli-Q water (final concentration of the prepared solutions: 0.1, 1, 2, 5, 10, and 20 mM) heating at 60°C for 3 min and sonicating for 1 min. The clear solutions were left cooling at rt.
5 Preparation of the PMP-2-based hydrogels
PMP-2 was dissolved in the suitable amount of milliQ water (final concentration of the prepared
solutions: 0.1 mM, 1 mM, 2 mM, 5 mM, 10 mM and 20 mM) heating at 60 °C for 3 minutes and
sonicating for 1 min. The clear solutions were left cooling at rt.
The 20 mM hydrogel was kept at room

Sequence: AIAIGVVQGLAFALGGKKKG [PMP-2]
- DLS aggregate stability ([1]; 0.1 mM, 5, 2.5 and 1% v/v DMSO/water): presence of stable aggregates
- DLS aggregate stability ([1]; 0.1 mM, 20% and 10% DMSO in water): formation of some stable aggregates
- DLS aggregate stability ([1]; 0.1 mM, 100, 80 and 50% v/v DMSO/water): very poor scattering power
- highest reachable concentration in DMSO ([2]; DMSO): 20 mM
- solubility in water ([2]; water, room temperature): low solubility at room temperature
- stability of hydrogel on storage [3]: complete stability
